pIC50, pKi: −log10 of the molar value. In brackets after ≈: the same amount, converted by molar mass.
Tests used:
[1] = Oral bioavailability in dog at 3 mg/kg; type: ADME, organism-based, Canis lupus familiaris; conditions: in vivo
[2] = Cmax in monkey at 3 mg/kg, po; type: ADME, organism-based, Macaca mulatta; set-up: route oral, dose 3 mg/kg; conditions: rhesus monkey, in vivo
Rattus norvegicus [3] = experiment: Analgesic activity in streptozotocin induced diabetic peripheral neuropathic mechanical allodynia in overnight fasted Sprague-Dawley rat model assessed as efficacy at 3 mg/kg, po measured at 5.5 hrs post dose; type: functional
[4] = Ratio of drug concentration in spinal cord to plasma of overnight fasted Sprague-Dawley rat model with streptozotocin induced diabetic peripheral neuropathic mechanical allodynia at 3 mg/kg, po measured at 5.5 hrs post dose; type: ADME, organism-based
[5] = Volume of distribution at steady state in rat at 2 mg/kg, iv; type: ADME, organism-based; conditions: in vivo, read-out: Vdss
Cytochrome P450 3A4 [6] = biological target: T1, Cytochrome P450 3A4 (Homo sapiens, UniProt P08684); experiment: Time dependent inhibition of CYP3A4 (unknown origin) using MDZ as substrate measured at 30 mins; type: ADME
T1 sequence (P08684 whole entry): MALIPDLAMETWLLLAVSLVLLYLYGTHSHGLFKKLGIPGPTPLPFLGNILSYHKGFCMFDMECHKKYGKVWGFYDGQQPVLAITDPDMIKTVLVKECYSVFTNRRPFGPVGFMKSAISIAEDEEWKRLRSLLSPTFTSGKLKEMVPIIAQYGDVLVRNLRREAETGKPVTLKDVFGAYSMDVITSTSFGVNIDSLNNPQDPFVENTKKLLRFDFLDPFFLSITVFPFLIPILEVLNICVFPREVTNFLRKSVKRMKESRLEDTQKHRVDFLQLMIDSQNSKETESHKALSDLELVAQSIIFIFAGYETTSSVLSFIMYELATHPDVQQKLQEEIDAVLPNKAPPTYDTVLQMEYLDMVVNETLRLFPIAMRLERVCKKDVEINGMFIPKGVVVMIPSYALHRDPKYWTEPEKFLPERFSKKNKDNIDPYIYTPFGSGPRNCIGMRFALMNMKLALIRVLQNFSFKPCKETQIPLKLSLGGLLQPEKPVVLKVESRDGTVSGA

[7] = Drug uptake in Spinal cord of CCI induced thermal hyperalgesia Sprague-Dawley rat model assessed as spinal occupancy at 1 mg/kg, po measured at 5.75 hrs post dose in presence of [3H]BMT-046091; type: ADME, organism-based; conditions: in vivo
[8] = Cmax in overnight fasted Sprague-Dawley rat plasma with streptozotocin induced diabetic peripheral neuropathic mechanical allodynia at 1 mg/kg, po measured at 5.5 hrs post dose; type: ADME, organism-based; set-up: route oral, time 5.5 hrs, dose 1 mg/kg
[9] = biological target: Solute carrier organic anion transporter family member 1B1 (Homo sapiens, UniProt Q9Y6L6); experiment: Inhibition of OATP1B1 (unknown origin)
Chain of Solute carrier organic anion transporter family member 1B1 (Q9Y6L6 whole entry): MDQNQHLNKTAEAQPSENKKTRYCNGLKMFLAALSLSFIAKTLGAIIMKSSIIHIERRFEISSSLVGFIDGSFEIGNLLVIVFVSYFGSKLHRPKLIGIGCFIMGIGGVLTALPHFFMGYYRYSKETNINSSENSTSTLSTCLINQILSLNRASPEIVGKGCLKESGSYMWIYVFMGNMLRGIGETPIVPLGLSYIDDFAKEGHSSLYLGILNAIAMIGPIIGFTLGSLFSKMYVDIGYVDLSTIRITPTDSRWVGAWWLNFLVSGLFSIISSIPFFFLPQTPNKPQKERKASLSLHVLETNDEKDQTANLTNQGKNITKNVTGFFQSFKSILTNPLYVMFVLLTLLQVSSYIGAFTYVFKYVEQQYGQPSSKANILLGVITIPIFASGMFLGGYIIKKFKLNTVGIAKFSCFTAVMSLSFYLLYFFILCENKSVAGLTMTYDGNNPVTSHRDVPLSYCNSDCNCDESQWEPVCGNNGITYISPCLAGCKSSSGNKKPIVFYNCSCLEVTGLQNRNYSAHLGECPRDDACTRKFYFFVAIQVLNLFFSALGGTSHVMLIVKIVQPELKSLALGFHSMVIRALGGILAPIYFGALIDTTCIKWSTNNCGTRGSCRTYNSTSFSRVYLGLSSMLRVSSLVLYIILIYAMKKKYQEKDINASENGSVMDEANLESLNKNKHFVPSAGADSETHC

Rattus norvegicus [10] = experiment: Analgesic activity in streptozotocin induced diabetic peripheral neuropathic mechanical allodynia in overnight fasted Sprague-Dawley rat model assessed as efficacy at 0.1 mg/kg, po measured at 5.5 hrs post dose; type: functional
[11] = Metabolic stability in dog liver microsomes assessed as half life; type: ADME, Canis lupus familiaris, Microsome
Bile salt export pump = Bile salt export pump (Homo sapiens, UniProt O95342); experiment: Inhibition of BSEP (unknown origin)
Cytochrome P450 3A4 [12] = biological target: T1, Cytochrome P450 3A4; experiment: Time dependent inhibition of CYP3A4 (unknown origin) using BSF as substrate measured at 5 mins; type: ADME
[13] = Displacement of 3H-LP-927443 from AAK1 in mouse brain membrane homogenate assessed as inhibition constant at 1 uM incubated for 1 hr by liquid scintillation counter analysis; type: cell membranes
[14] = biological target: BMP-2-inducible protein kinase (Homo sapiens, UniProt Q9NSY1); experiment: Inhibition of BIKE (unknown origin)
Chain of BMP-2-inducible protein kinase (Q9NSY1 whole entry): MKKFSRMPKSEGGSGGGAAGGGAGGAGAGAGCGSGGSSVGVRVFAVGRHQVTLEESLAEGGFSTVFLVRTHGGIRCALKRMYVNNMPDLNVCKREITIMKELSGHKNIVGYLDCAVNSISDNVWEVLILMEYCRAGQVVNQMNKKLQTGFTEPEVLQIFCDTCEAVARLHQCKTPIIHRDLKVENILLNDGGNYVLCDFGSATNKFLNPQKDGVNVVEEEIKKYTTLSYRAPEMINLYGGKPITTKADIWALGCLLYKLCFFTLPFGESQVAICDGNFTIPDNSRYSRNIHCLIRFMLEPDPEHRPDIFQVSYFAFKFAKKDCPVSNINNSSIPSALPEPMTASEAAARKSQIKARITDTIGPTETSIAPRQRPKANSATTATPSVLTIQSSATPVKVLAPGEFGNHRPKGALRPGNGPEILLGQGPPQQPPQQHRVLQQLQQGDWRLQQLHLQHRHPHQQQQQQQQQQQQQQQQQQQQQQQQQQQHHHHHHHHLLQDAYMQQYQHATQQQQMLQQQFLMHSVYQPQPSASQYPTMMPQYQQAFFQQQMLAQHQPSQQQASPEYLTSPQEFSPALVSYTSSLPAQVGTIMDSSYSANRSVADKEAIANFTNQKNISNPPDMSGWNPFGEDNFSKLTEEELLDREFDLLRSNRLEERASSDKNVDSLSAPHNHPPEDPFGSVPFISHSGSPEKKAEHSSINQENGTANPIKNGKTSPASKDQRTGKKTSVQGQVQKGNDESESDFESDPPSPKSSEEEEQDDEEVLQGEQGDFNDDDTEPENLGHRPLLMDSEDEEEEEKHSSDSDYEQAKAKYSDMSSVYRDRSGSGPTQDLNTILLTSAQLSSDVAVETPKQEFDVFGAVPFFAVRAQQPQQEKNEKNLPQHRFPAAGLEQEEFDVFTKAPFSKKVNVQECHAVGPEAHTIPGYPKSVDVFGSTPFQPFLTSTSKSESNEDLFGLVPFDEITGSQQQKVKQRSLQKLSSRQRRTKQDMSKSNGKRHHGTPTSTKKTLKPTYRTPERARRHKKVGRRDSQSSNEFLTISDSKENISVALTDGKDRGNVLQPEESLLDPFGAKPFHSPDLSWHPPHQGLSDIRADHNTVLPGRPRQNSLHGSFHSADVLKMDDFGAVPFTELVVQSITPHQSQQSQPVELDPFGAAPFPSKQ

[15] = Tmax in rat at 3 mg/kg, po; type: ADME, organism-based; conditions: in vivo
[16] = Cmax in overnight fasted Sprague-Dawley rat plasma with streptozotocin induced diabetic peripheral neuropathic mechanical allodynia at 3 mg/kg, po measured at 5.5 hrs post dose; type: ADME, organism-based; set-up: route oral, time 5.5 hrs, dose 3 mg/kg
[17] = Toxicity in naive Sprague-Dawley rat assessed as motor impairment at 3 to 30 mg/kg, po measured after 5 hrs by rotarod test; type: organism-based; conditions: in vivo, dose 3-30 mg/kg
[18] = biological target: Hepatic sodium/bile acid cotransporter (Homo sapiens, UniProt Q14973); experiment: Inhibition of NTCP (unknown origin)
Chain of Hepatic sodium/bile acid cotransporter (Q14973 whole entry): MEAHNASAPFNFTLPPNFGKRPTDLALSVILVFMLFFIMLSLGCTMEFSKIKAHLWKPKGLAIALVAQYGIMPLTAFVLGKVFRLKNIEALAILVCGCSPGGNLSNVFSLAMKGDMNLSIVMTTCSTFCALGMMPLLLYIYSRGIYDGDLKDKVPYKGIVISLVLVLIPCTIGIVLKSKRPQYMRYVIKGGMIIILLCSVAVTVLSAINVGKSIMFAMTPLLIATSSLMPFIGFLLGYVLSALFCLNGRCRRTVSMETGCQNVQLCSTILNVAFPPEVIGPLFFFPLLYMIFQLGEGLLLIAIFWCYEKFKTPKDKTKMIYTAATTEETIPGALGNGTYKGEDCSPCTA

Rattus norvegicus [19] = experiment: Analgesic activity in CCI induced thermal hyperalgesia Sprague-Dawley rat model assessed as efficacy at 1 mg/kg, po measured at 5.75 hrs post dose; type: functional
Homo sapiens [20] = species on record: Homo sapiens; experiment: Inhibition of sodium channel (unknown origin) at 10 uM at 4 Hz electrophysiological method relative to control
[21] = Cmax in Sprague-Dawley rat plasma with CCI induced thermal hyperalgesia at 1 mg/kg, po measured at 5.75 hrs post dose; type: ADME, organism-based; set-up: route oral, dose 1 mg/kg, time 5.75 hrs
[22] = Solubility of the compound in ethanol; type: physicochemical
[23] = biological target: Solute carrier organic anion transporter family member 1B3 (Homo sapiens, UniProt Q9NPD5); experiment: Inhibition of OATP1B3 (unknown origin)
[24] = Drug concentration in Sprague-Dawley rat spinal cord with CCI induced thermal hyperalgesia at 0.3 mg/kg, po measured at 5.75 hrs post dose; type: ADME, organism-based; conditions: read-out: Ct
Aorta = experiment: Cardiotoxicity in rat aortic ring assessed as relaxation of phenylephrine induced aortic ring contraction at 10 uM incubated for 1 hr; type: toxicity, tissue-based; set-up: scale not given: the % may be the effect or the level left
[25] = Protein binding in human plasma assessed as unbound fraction at 10 uM measured after 5 hrs by LC-MS/MS analysis; type: ADME, cell-free
Cytochrome P450 3A4 [26] = biological target: T1, Cytochrome P450 3A4; experiment: Time dependent inhibition of CYP3A4 (unknown origin) using TST as substrate measured at 5 mins; type: ADME
[27] = Ratio of drug concentration in spinal cord to plasma of overnight fasted Sprague-Dawley rat model with streptozotocin induced diabetic peripheral neuropathic mechanical allodynia at 0.3 mg/kg, po measured at 5.5 hrs post dose; type: ADME, organism-based
[28] = Tmax in dog at 3 mg/kg, po; type: ADME, organism-based, Canis lupus familiaris; conditions: in vivo
[29] = MRT in dog at 2 mg/kg, iv; type: ADME, organism-based, Canis lupus familiaris; conditions: in vivo
[30] = Cmax in overnight fasted Sprague-Dawley rat plasma with streptozotocin induced diabetic peripheral neuropathic mechanical allodynia at 0.3 mg/kg, po measured at 5.5 hrs post dose; type: ADME, organism-based; set-up: route oral, time 5.5 hrs, dose 0.3 mg/kg
Cytochrome P450 2B6 = Cytochrome P450 2B6 (Homo sapiens, UniProt P20813); experiment: Inhibition of CYP2B6 (unknown origin); type: ADME
Chain of Cytochrome P450 2B6 (P20813 whole entry): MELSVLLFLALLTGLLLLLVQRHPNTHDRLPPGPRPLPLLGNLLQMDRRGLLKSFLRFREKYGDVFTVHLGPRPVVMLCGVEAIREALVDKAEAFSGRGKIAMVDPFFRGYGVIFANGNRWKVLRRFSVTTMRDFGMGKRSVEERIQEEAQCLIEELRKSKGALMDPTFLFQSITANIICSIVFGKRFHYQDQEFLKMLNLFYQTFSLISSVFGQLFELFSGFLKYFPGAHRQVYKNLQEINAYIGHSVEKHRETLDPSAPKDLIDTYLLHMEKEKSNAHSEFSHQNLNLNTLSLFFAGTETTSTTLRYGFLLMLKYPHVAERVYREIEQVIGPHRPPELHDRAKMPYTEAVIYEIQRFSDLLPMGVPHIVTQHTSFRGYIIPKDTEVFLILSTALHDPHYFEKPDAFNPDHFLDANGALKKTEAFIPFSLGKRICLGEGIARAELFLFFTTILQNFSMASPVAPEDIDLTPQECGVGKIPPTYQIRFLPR

[31] = biological target: ATP-binding cassette sub-family C member 2 (Homo sapiens, UniProt Q92887); experiment: Inhibition of MRP2 (unknown origin)
Chain of ATP-binding cassette sub-family C member 2 (Q92887 whole entry): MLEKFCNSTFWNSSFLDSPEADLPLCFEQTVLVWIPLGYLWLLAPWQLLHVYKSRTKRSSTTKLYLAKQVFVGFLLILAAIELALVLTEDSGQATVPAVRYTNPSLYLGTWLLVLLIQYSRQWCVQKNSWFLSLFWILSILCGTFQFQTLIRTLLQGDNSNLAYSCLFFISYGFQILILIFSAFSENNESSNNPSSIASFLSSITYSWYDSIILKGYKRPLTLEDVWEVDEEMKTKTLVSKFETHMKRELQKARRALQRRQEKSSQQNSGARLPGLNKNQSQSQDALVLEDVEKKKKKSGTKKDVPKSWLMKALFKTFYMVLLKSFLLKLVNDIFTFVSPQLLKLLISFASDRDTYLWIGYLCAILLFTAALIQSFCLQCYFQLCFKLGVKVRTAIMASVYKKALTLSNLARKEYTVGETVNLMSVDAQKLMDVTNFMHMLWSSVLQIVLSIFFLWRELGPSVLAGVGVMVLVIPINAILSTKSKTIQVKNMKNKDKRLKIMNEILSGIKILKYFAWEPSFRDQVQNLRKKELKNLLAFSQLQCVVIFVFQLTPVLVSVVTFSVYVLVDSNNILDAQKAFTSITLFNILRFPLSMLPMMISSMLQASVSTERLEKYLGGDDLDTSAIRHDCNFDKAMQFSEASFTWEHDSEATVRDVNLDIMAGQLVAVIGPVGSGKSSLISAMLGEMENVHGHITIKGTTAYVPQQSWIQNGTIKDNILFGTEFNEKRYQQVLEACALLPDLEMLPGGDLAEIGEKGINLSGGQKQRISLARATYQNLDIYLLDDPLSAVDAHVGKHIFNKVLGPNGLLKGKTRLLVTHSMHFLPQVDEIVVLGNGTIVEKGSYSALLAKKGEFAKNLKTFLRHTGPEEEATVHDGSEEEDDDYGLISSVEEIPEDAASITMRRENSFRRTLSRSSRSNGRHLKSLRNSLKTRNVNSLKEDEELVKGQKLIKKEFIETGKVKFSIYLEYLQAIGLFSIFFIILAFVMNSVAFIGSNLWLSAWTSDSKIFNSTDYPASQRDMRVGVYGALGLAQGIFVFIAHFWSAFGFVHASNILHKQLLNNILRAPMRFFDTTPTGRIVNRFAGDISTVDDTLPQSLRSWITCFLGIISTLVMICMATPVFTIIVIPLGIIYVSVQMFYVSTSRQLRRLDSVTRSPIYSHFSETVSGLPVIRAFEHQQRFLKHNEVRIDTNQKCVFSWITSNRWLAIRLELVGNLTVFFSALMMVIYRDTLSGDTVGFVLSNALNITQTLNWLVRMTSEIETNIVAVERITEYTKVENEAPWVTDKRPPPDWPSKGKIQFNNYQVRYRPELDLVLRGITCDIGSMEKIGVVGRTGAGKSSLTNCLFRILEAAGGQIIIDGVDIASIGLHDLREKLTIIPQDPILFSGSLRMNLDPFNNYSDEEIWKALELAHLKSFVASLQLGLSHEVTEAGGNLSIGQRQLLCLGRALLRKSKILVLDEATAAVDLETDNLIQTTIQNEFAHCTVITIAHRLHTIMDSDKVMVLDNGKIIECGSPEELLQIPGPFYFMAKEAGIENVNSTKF

[32] = Ratio of drug concentration in spinal cord to plasma of overnight fasted Sprague-Dawley rat model with streptozotocin induced diabetic peripheral neuropathic mechanical allodynia at 0.1 mg/kg, po measured at 5.5 hrs post dose; type: ADME, organism-based
[33] = Cmax in overnight fasted Sprague-Dawley rat plasma with streptozotocin induced diabetic peripheral neuropathic mechanical allodynia at 0.1 mg/kg, po measured at 5.5 hrs post dose; type: ADME, organism-based; set-up: route oral, time 5.5 hrs, dose 0.1 mg/kg
[34] = Drug concentration in Sprague-Dawley rat spinal cord with CCI induced thermal hyperalgesia at 1 mg/kg, po measured at 5.75 hrs post dose; type: ADME, organism-based; conditions: read-out: Ct
Cytochrome P450 3A4 [35] = biological target: T1, Cytochrome P450 3A4; experiment: Time dependent inhibition of CYP3A4 (unknown origin) using TST as substrate measured at 30 mins; type: ADME
[36] = Volume of distribution at steady state in monkey at 2 mg/kg, iv; type: ADME, organism-based, Macaca mulatta; conditions: rhesus monkey, in vivo, read-out: Vdss
[37] = Tmax in mouse at 3 mg/kg, po; type: ADME, organism-based; conditions: in vivo
[38] = Solubility of the compound in propylene glycol; type: physicochemical
[39] = Metabolic stability in mouse liver microsomes assessed as CYP450-mediated metabolism by measuring parent compound remaining at 0.5 uM incubated for 10 mins in presence of NADPH by LC-MS/MS analysis; type: ADME; conditions: read-out: Stability
[40] = Solubility of the compound at pH 6.5 using crystalline form of sample; type: physicochemical
[41] = Solubility of the compound at pH 1.2 using crystalline form of sample; type: physicochemical
Rattus norvegicus [42] = experiment: Analgesic activity in streptozotocin induced diabetic peripheral neuropathic mechanical allodynia in overnight fasted Sprague-Dawley rat model assessed as reduction in pain response at 0.3 mg/kg, po measured after 5.5 hrs post treatment; type: functional; set-up: scale not given: the % may be the effect or the level left
Homo sapiens [43] = species on record: Homo sapiens; experiment: Inhibition of calcium channel (unknown origin) at 10 uM by electrophysiological method relative to control
[44] = Protein binding in mouse plasma assessed as unbound fraction at 10 uM measured after 5 hrs by LC-MS/MS analysis; type: ADME, cell-free
[45] = MRT in mouse at 2 mg/kg, iv; type: ADME, organism-based; conditions: in vivo
[46] = Lipophilicity, log D of the compound at pH 7.4; type: physicochemical; conditions: buffer

## CC(C)C[C@](C)(N)COc1ccc(-c2ccnc(C(F)F)c2)nc1C(F)F [PILAVAPADIN]
[1]
  bioavailability: 87%
[2]
  Cmax: 20 ng/mL
Rattus norvegicus [3]
  Efficacy: 63%
[4]
  Kp at 5.5 h: 7
[5]
  Vd: 19.6 L/kg
Cytochrome P450 3A4 [6]
  pIC50: < 4.40
[7]
  Occ: 96%
[8]
  Cmax: 92 nM
[9]
  pIC50: < 4.52
Rattus norvegicus [10]
  Efficacy: 20%
[11]
  half-life: 0.5 h
Bile salt export pump
  pIC50: < 4.52
Cytochrome P450 3A4 [12]
  pIC50: < 4.70
[13]
  pKi: 9.51
[14]
  pIC50: 5.72
[15]
  Tmax: 3 h
[16]
  Cmax: 366 nM
[17]
  Activity: Non-Toxic
[18]
  pIC50: < 4.52
Rattus norvegicus [19]
  Efficacy: 97%
Homo sapiens [20]
  inhibition: 61%
[21]
  Cmax: 63 nM
[22]
  solubility: > 50000 µg/mL
[23]
  pIC50: < 4.52
[24]
  concentration at 5.75 h: 431 nM
Aorta
  Activity: 42%
[25]
  fraction unbound at 5 h, 10 µM: 0.085
Cytochrome P450 3A4 [26]
  pIC50: < 4.40
[27]
  Kp at 5.5 h: 8
[28]
  Tmax: 1.3 h
[29]
  MRT: 6.9 h
[30]
  Cmax: 25 nM
Cytochrome P450 2B6
  pIC50: < 4.70
[31]
  pIC50: < 4.52
[32]
  Kp at 5.5 h: 13
[33]
  Cmax: 6 nM
[34]
  concentration at 5.75 h: 1220 nM
Cytochrome P450 3A4 [35]
  pIC50: < 4.40
[36]
  Vd: 20.6 L/kg
[37]
  Tmax: 5 h
[38]
  solubility: > 50000 µg/mL
[39]
  remaining at 10 min, 0.5 µM: 86%
[40]
  solubility thermodynamic: 440 µg/mL (≈ 1.14 mM)
[41]
  solubility thermodynamic: 2000 µg/mL (≈ 5.19 mM)
Rattus norvegicus [42]
  Activity: 20%
Homo sapiens [43]
  inhibition: 40%
[44]
  fraction unbound at 5 h, 10 µM: 0.046
[45]
  MRT: 63.8 h
[46]
  logD: 1.48

From ChEMBL document CHEMBL5046296 (J Med Chem, 2022)
